Measurements published in ChEMBL document CHEMBL6078640, “Trivalent oleanolic acid-glucose conjugates: Synthesis and efficacy against Influenza A virus” (Eur J Med Chem, 2024).

Columns and labels:
MDCK = assay: Cytotoxicity against dog MDCK cells assessed as reduction in cell viability at 100 uM incubated for 40 hrs by celltiter-glo assay; type: toxicity, cell-based, Canis lupus familiaris
[1] = Selectivity index, ratio of CC50 for dog MDCK cells to IC50 for influenza A virus A/WSN/33(H1N1) infected in MDCK cells; type: toxicity, cell-based; conditions: read-out: Selectivity Index
[2] = Cytotoxicity against dog MDCK cells assessed as reduction in cell viability incubated for 40 hrs by celltiter-glo assay; type: toxicity, cell-based, Canis lupus familiaris
Influenza A virus [3] = assay: Antiviral activity against influenza A virus A/WSN/33(H1N1) infected in MDCK cells assessed as inhibition of viral-induced cytopathic effect pretreated with cells followed by viral infection and measured after 40 hrs by fluorescence based microplate reader analysis; type: functional, organism-based
Influenza A virus [4] = assay: Antiviral activity against Influenza A virus H1N1 infected in MDCK cells assessed as inhibition of viral growth at 100 uM relative to control; type: functional

| Compound | Activity (MDCK) | selectivity ratio [1] | CC50 at 40 h [2] | IC50 (Influenza A virus [3]) | inhibition at 100 µM (Influenza A virus [4]) |
| --- | --- | --- | --- | --- | --- |
| CC(=O)OC[C@H]1O[C@@H](n2cc(CNC(=O)[C@]34CCC(C)(C)C[C@H]3C3=CC[C@@H]5[C@@]6(C)CC[C@H](OC(=O)NCc7cn(CC(CO)(Cn8cc(CNC(=O)O[C@H]9CC[C@]%10(C)[C@H]%11CC=C%12[C@@H]%13CC(C)(C)CC[C@]%13(C(=O)NCc%13cn([C@@H]%14O[C@H](COC(C)=O)[C@@H](OC(C)=O)[C@H](OC(C)=O)[C@H]%14OC(C)=O)nn%13)CC[C@@]%12(C)[C@]%11(C)CC[C@H]%10C9(C)C)nn8)Cn8cc(CNC(=O)O[C@H]9CC[C@]%10(C)[C@H]%11CC=C%12[C@@H]%13CC(C)(C)CC[C@]%13(C(=O)NCc%13cn([C@@H]%14O[C@H](COC(C)=O)[C@@H](OC(C)=O)[C@H](OC(C)=O)[C@H]%14OC(C)=O)nn%13)CC[C@@]%12(C)[C@]%11(C)CC[C@H]%10C9(C)C)nn8)nn7)C(C)(C)[C@@H]6CC[C@@]5(C)[C@]3(C)CC4)nn2)[C@H](OC(C)=O)[C@@H](OC(C)=O)[C@@H]1OC(C)=O | Non-toxic | > 1.42 | > 100 µM | 70.4 µM | > 75% |
| CC(=O)OC[C@H]1O[C@@H](n2cc(CNC(=O)[C@]34CCC(C)(C)C[C@H]3C3=CC[C@@H]5[C@@]6(C)CC[C@H](OC(=O)NCCc7cn(Cc8cc(Cn9cc(CCNC(=O)O[C@H]%10CC[C@]%11(C)[C@H]%12CC=C%13[C@@H]%14CC(C)(C)CC[C@]%14(C(=O)NCc%14cn([C@@H]%15O[C@H](COC(C)=O)[C@@H](OC(C)=O)[C@H](OC(C)=O)[C@H]%15OC(C)=O)nn%14)CC[C@@]%13(C)[C@]%12(C)CC[C@H]%11C%10(C)C)nn9)cc(Cn9cc(CCNC(=O)O[C@H]%10CC[C@]%11(C)[C@H]%12CC=C%13[C@@H]%14CC(C)(C)CC[C@]%14(C(=O)NCc%14cn([C@@H]%15O[C@H](COC(C)=O)[C@@H](OC(C)=O)[C@H](OC(C)=O)[C@H]%15OC(C)=O)nn%14)CC[C@@]%13(C)[C@]%12(C)CC[C@H]%11C%10(C)C)nn9)c8)nn7)C(C)(C)[C@@H]6CC[C@@]5(C)[C@]3(C)CC4)nn2)[C@H](OC(C)=O)[C@@H](OC(C)=O)[C@@H]1OC(C)=O | Non-toxic | > 8.55 | > 100 µM | 46.8 µM | > 75% |
| CC1(C)CC[C@]2(C(=O)NCc3cn([C@@H]4O[C@H](CO)[C@@H](O)[C@H](O)[C@H]4O)nn3)CC[C@]3(C)C(=CC[C@@H]4[C@@]5(C)CC[C@H](OC(=O)NCCCCCc6cn(Cc7cc(Cn8cc(CCCCCNC(=O)O[C@H]9CC[C@]%10(C)[C@H]%11CC=C%12[C@@H]%13CC(C)(C)CC[C@]%13(C(=O)NCc%13cn([C@@H]%14O[C@H](CO)[C@@H](O)[C@H](O)[C@H]%14O)nn%13)CC[C@@]%12(C)[C@]%11(C)CC[C@H]%10C9(C)C)nn8)cc(Cn8cc(CCCCCNC(=O)O[C@H]9CC[C@]%10(C)[C@H]%11CC=C%12[C@@H]%13CC(C)(C)CC[C@]%13(C(=O)NCc%13cn([C@@H]%14O[C@H](CO)[C@@H](O)[C@H](O)[C@H]%14O)nn%13)CC[C@@]%12(C)[C@]%11(C)CC[C@H]%10C9(C)C)nn8)c7)nn6)C(C)(C)[C@@H]5CC[C@]43C)[C@@H]2C1 | Non-toxic | > 1.37 | > 100 µM | 72.9 µM | > 75% |
| CC(=O)OC[C@H]1O[C@@H](n2cc(CNC(=O)[C@]34CCC(C)(C)C[C@H]3C3=CC[C@@H]5[C@@]6(C)CC[C@H](OC(=O)NCCc7cn(CC(CO)(Cn8cc(CCNC(=O)O[C@H]9CC[C@]%10(C)[C@H]%11CC=C%12[C@@H]%13CC(C)(C)CC[C@]%13(C(=O)NCc%13cn([C@@H]%14O[C@H](COC(C)=O)[C@@H](OC(C)=O)[C@H](OC(C)=O)[C@H]%14OC(C)=O)nn%13)CC[C@@]%12(C)[C@]%11(C)CC[C@H]%10C9(C)C)nn8)Cn8cc(CCNC(=O)O[C@H]9CC[C@]%10(C)[C@H]%11CC=C%12[C@@H]%13CC(C)(C)CC[C@]%13(C(=O)NCc%13cn([C@@H]%14O[C@H](COC(C)=O)[C@@H](OC(C)=O)[C@H](OC(C)=O)[C@H]%14OC(C)=O)nn%13)CC[C@@]%12(C)[C@]%11(C)CC[C@H]%10C9(C)C)nn8)nn7)C(C)(C)[C@@H]6CC[C@@]5(C)[C@]3(C)CC4)nn2)[C@H](OC(C)=O)[C@@H](OC(C)=O)[C@@H]1OC(C)=O | Non-toxic | > 9.69 | > 100 µM | 10.3 µM | > 75% |
| CC(=O)OC[C@H]1O[C@@H](n2cc(CNC(=O)[C@]34CCC(C)(C)C[C@H]3C3=CC[C@@H]5[C@@]6(C)CC[C@H](OC(=O)NCCCc7cn(Cc8cc(Cn9cc(CCCNC(=O)O[C@H]%10CC[C@]%11(C)[C@H]%12CC=C%13[C@@H]%14CC(C)(C)CC[C@]%14(C(=O)NCc%14cn([C@@H]%15O[C@H](COC(C)=O)[C@@H](OC(C)=O)[C@H](OC(C)=O)[C@H]%15OC(C)=O)nn%14)CC[C@@]%13(C)[C@]%12(C)CC[C@H]%11C%10(C)C)nn9)cc(Cn9cc(CCCNC(=O)O[C@H]%10CC[C@]%11(C)[C@H]%12CC=C%13[C@@H]%14CC(C)(C)CC[C@]%14(C(=O)NCc%14cn([C@@H]%15O[C@H](COC(C)=O)[C@@H](OC(C)=O)[C@H](OC(C)=O)[C@H]%15OC(C)=O)nn%14)CC[C@@]%13(C)[C@]%12(C)CC[C@H]%11C%10(C)C)nn9)c8)nn7)C(C)(C)[C@@H]6CC[C@@]5(C)[C@]3(C)CC4)nn2)[C@H](OC(C)=O)[C@@H](OC(C)=O)[C@@H]1OC(C)=O | Non-toxic | > 15.6 | > 100 µM | 6.39 µM | > 75% |
| CC(=O)OC[C@H]1O[C@@H](n2cc(CNC(=O)[C@]34CCC(C)(C)C[C@H]3C3=CC[C@@H]5[C@@]6(C)CC[C@H](OC(=O)NCCCCCc7cn(Cc8cc(Cn9cc(CCCCCNC(=O)O[C@H]%10CC[C@]%11(C)[C@H]%12CC=C%13[C@@H]%14CC(C)(C)CC[C@]%14(C(=O)NCc%14cn([C@@H]%15O[C@H](COC(C)=O)[C@@H](OC(C)=O)[C@H](OC(C)=O)[C@H]%15OC(C)=O)nn%14)CC[C@@]%13(C)[C@]%12(C)CC[C@H]%11C%10(C)C)nn9)cc(Cn9cc(CCCCCNC(=O)O[C@H]%10CC[C@]%11(C)[C@H]%12CC=C%13[C@@H]%14CC(C)(C)CC[C@]%14(C(=O)NCc%14cn([C@@H]%15O[C@H](COC(C)=O)[C@@H](OC(C)=O)[C@H](OC(C)=O)[C@H]%15OC(C)=O)nn%14)CC[C@@]%13(C)[C@]%12(C)CC[C@H]%11C%10(C)C)nn9)c8)nn7)C(C)(C)[C@@H]6CC[C@@]5(C)[C@]3(C)CC4)nn2)[C@H](OC(C)=O)[C@@H](OC(C)=O)[C@@H]1OC(C)=O | Non-toxic | > 1.89 | > 100 µM | 52.9 µM | > 75% |
| CC1(C)CC[C@]2(C(=O)NCc3cn([C@@H]4O[C@H](CO)[C@@H](O)[C@H](O)[C@H]4O)nn3)CC[C@]3(C)C(=CC[C@@H]4[C@@]5(C)CC[C@H](OC(=O)NCc6cn(CC(CO)(Cn7cc(CNC(=O)O[C@H]8CC[C@]9(C)[C@H]%10CC=C%11[C@@H]%12CC(C)(C)CC[C@]%12(C(=O)NCc%12cn([C@@H]%13O[C@H](CO)[C@@H](O)[C@H](O)[C@H]%13O)nn%12)CC[C@@]%11(C)[C@]%10(C)CC[C@H]9C8(C)C)nn7)Cn7cc(CNC(=O)O[C@H]8CC[C@]9(C)[C@H]%10CC=C%11[C@@H]%12CC(C)(C)CC[C@]%12(C(=O)NCc%12cn([C@@H]%13O[C@H](CO)[C@@H](O)[C@H](O)[C@H]%13O)nn%12)CC[C@@]%11(C)[C@]%10(C)CC[C@H]9C8(C)C)nn7)nn6)C(C)(C)[C@@H]5CC[C@]43C)[C@@H]2C1 | Non-toxic | > 14.5 | > 100 µM | 6.91 µM | > 75% |
| CC(=O)OC[C@H]1O[C@@H](n2cc(CNC(=O)[C@]34CCC(C)(C)C[C@H]3C3=CC[C@@H]5[C@@]6(C)CC[C@H](OC(=O)NCc7cn(Cc8cc(Cn9cc(CNC(=O)O[C@H]%10CC[C@]%11(C)[C@H]%12CC=C%13[C@@H]%14CC(C)(C)CC[C@]%14(C(=O)NCc%14cn([C@@H]%15O[C@H](COC(C)=O)[C@@H](OC(C)=O)[C@H](OC(C)=O)[C@H]%15OC(C)=O)nn%14)CC[C@@]%13(C)[C@]%12(C)CC[C@H]%11C%10(C)C)nn9)cc(Cn9cc(CNC(=O)O[C@H]%10CC[C@]%11(C)[C@H]%12CC=C%13[C@@H]%14CC(C)(C)CC[C@]%14(C(=O)NCc%14cn([C@@H]%15O[C@H](COC(C)=O)[C@@H](OC(C)=O)[C@H](OC(C)=O)[C@H]%15OC(C)=O)nn%14)CC[C@@]%13(C)[C@]%12(C)CC[C@H]%11C%10(C)C)nn9)c8)nn7)C(C)(C)[C@@H]6CC[C@@]5(C)[C@]3(C)CC4)nn2)[C@H](OC(C)=O)[C@@H](OC(C)=O)[C@@H]1OC(C)=O | Non-toxic | > 147 | > 100 µM | 0.68 µM | > 75% |
| CCOC(=O)C1=C[C@@H](OC(CC)CC)[C@H](NC(C)=O)[C@@H](N)C1.O=P(O)(O)O [OSELTAMIVIR PHOSPHATE] | Non-toxic | > 18.3 | > 100 µM | 5.47 µM |  |
| CC1(C)CC[C@]2(C(=O)NCc3cn([C@@H]4O[C@H](CO)[C@@H](O)[C@H](O)[C@H]4O)nn3)CC[C@]3(C)C(=CC[C@@H]4[C@@]5(C)CC[C@H](OC(=O)NCCc6cn(CC(CO)(Cn7cc(CCNC(=O)O[C@H]8CC[C@]9(C)[C@H]%10CC=C%11[C@@H]%12CC(C)(C)CC[C@]%12(C(=O)NCc%12cn([C@@H]%13O[C@H](CO)[C@@H](O)[C@H](O)[C@H]%13O)nn%12)CC[C@@]%11(C)[C@]%10(C)CC[C@H]9C8(C)C)nn7)Cn7cc(CCNC(=O)O[C@H]8CC[C@]9(C)[C@H]%10CC=C%11[C@@H]%12CC(C)(C)CC[C@]%12(C(=O)NCc%12cn([C@@H]%13O[C@H](CO)[C@@H](O)[C@H](O)[C@H]%13O)nn%12)CC[C@@]%11(C)[C@]%10(C)CC[C@H]9C8(C)C)nn7)nn6)C(C)(C)[C@@H]5CC[C@]43C)[C@@H]2C1 | Non-toxic | > 29.5 | > 100 µM | 3.39 µM |  |
